From ChEMBL document CHEMBL3804805, “Cathepsin B Inhibitors: Combining Dipeptide Nitriles with an Occluding Loop Recognition Element by Click Chemistry” (ACS Med Chem Lett, 2016)

Key:
Cathepsin B [1] = target: T1, Cathepsin B (Homo sapiens, UniProt P07858); test: Inhibition of human cathepsin B
Cathepsin B [2] = target: T1, Cathepsin B; test: Inhibition of human liver cathepsin B using Cbz-Arg-Arg-pNA as substrate at pH 6 incubated for 30 mins measured for 20 mins by photometrical analysis
Cathepsin B [3] = target: T1, Cathepsin B; test: Inhibition of human liver cathepsin B using Cbz-Arg-Arg-pNA as substrate at pH 4.5 incubated for 30 mins measured for 20 mins by photometrical analysis
Cathepsin K = target: T2, Cathepsin K (Homo sapiens, UniProt P43235); test: Inhibition of human recombinant cathepsin K using Cbz-Leu-Arg-AMC as substrate incubated for 30 mins measured for 20 mins by spectrofluorometrical analysis
T2 sequence (P43235 whole entry): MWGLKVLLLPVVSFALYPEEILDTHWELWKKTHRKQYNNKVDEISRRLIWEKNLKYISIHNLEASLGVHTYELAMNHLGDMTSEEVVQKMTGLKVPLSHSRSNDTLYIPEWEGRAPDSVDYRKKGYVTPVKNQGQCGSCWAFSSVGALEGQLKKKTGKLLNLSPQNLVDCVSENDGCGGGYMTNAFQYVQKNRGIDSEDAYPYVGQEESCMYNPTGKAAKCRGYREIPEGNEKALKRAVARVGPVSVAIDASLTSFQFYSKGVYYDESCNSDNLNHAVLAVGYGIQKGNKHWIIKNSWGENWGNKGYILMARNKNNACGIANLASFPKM

Cathepsin B [4] = target: T1, Cathepsin B; test: Inhibition of human liver cathepsin B using Abz-Gly-Ile-Val-Arg-Ala-Lys(Dnp)-OH as substrate at pH 4.5 incubated for 30 mins measured for 10 mins by […]
Procathepsin L = Procathepsin L (Homo sapiens, UniProt P07711); test: Inhibition of human liver cathepsin L using Cbz-Phe-Arg-pNA as substrate incubated for 30 mins measured for 20 mins by photometrical analysis
Cathepsin S = Cathepsin S (Homo sapiens, UniProt P25774); test: Inhibition of human recombinant cathepsin S using Cbz-Phe-Arg-AMC as substrate incubated for 60 mins measured for 20 mins by spectrofluorometrical analysis
Sequence of Cathepsin S (P25774 whole entry): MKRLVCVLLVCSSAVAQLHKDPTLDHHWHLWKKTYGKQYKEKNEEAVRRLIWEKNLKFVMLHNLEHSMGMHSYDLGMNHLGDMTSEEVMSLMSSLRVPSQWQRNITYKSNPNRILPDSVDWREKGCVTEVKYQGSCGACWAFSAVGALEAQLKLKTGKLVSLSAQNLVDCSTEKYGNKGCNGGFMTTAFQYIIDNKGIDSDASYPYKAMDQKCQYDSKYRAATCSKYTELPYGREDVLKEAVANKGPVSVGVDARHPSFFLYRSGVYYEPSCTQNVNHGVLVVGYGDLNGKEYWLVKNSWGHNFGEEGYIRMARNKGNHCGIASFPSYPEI

Sequence of Procathepsin L (P07711 whole entry): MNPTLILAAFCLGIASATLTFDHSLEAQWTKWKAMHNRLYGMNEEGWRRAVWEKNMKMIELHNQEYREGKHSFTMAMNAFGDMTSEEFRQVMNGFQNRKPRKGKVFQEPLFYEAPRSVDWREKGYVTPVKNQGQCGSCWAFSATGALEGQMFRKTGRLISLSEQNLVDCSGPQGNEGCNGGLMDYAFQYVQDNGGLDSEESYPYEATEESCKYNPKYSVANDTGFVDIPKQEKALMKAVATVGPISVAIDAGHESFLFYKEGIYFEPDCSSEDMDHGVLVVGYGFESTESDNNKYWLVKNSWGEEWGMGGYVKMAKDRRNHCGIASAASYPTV

| Ki (Cathepsin B [2]) [nM] | SMILES | further results |
| --- | --- | --- |
| > 330 | CC(C)(C)OC(=O)N[C@H](Cc1ccccc1)C(=O)NCC#N | – |
| 120 | N#CCNC(=O)[C@H](Cc1cccc(Br)c1)NC(=O)c1ccc(-c2ccccc2)cc1 | Ki (Cathepsin B [3]): 205 nM; Ki (Cathepsin K): 930 nM; Ki (Cathepsin B [4]): 220 nM; Ki (Procathepsin L): 609 nM; Ki (Cathepsin S): 178 nM |
| > 330 | CC(C)(C)OC(=O)NCC(=O)NCC#N | – |
| > 330 | CC(C)(C)OC(=O)N[C@@H](Cc1cccc2ccccc12)C(=O)NCC#N | – |
| > 330 | CC(C)(C)OC(=O)N[C@@H](Cc1ccc(Br)cc1)C(=O)NCC#N | – |
| 3460 | CC(C)(C)OC(=O)N[C@@H](Cc1ccc2ccccc2c1)C(=O)NCC#N | – |
| > 330 | N#CCNC(=O)C1(NC(=O)OCc2ccccc2)CCCCC1 | – |
| > 330 | N#CCNC(=O)[C@H](Cc1ccc(O)cc1)NC(=O)OCc1ccccc1 | – |
| > 330 | CC(C)(C)OC(=O)N[C@@H](CC1CC1)C(=O)NCC#N | – |
| > 330 | CC[C@H](NC(=O)OC(C)(C)C)C(=O)NCC#N | – |
| > 330 | N#CCNC(=O)CNC(=O)OCc1ccccc1 | – |
| > 330 | CCC(C)[C@H](NC(=O)OC(C)(C)C)C(=O)NCC#N (some centres not stated) | – |
| > 330 | CC(C)(C)OC(=O)N[C@@H](COCc1ccccc1)C(=O)NCC#N | – |
| 26 | COC(=O)Cn1cc(COC[C@@H](C#N)NC(=O)[C@H](Cc2cccc(Br)c2)NC(=O)c2ccc(-c3ccccc3)cc2)nn1 | Ki (Cathepsin B [3]): 136 nM; Ki (Cathepsin K): 67.6 nM; Ki (Cathepsin B [4]): 131 nM; Ki (Procathepsin L): 431 nM; Ki (Cathepsin S): 186 nM |
| > 330 | CN(CC#N)C(=O)[C@H](Cc1ccccc1)NC(=O)OCc1ccccc1 | – |
| > 330 | C[C@@H](C#N)N(C)C(=O)[C@H](Cc1ccccc1)NC(=O)OC(C)(C)C | – |
| > 330 | CC(C)(C)OC(=O)N1CCC[C@H]1C(=O)NCC#N | – |
| > 330 | N#CCNC(=O)[C@H](CC1CCCCC1)NC(=O)c1ccc(-c2noc(-c3cccs3)n2)cc1 | – |
| > 330 | CSCC[C@@H](C#N)NC(=O)C(CC(C)C)NC(=O)c1ccc(-c2ccccc2)cc1 (some centres not stated) | – |
| > 330 | CC(C)(C)OC(=O)N[C@@H](Cc1ccc(O)cc1)C(=O)NCC#N | – |
| > 330 | CCC[C@H](NC(=O)OC(C)(C)C)C(=O)NCC#N | – |
| > 330 | CC(C)[C@H](NC(=O)OC(C)(C)C)C(=O)NCC#N | – |
| 196000 | N#C[C@H](CCOCc1cn(CCC(=O)O)nn1)NC(=O)[C@H](Cc1ccccc1)NC(=O)OCc1ccccc1 | Ki (Cathepsin K): 370 nM; Ki (Procathepsin L): 1920 nM; Ki (Cathepsin S): 490 nM |
| > 330 | C[C@H](NC(=O)OC(C)(C)C)C(=O)NCC#N | – |
| 41.3 | N#C[C@H](COCc1cn(CC(=O)O)nn1)NC(=O)[C@H](Cc1cccc(Br)c1)NC(=O)c1ccc(-c2ccccc2)cc1 | Ki (Cathepsin B [3]): 27.3 nM; Ki (Cathepsin K): 335 nM; Ki (Cathepsin B [4]): 19.2 nM; Ki (Procathepsin L): 6300 nM; Ki (Cathepsin S): 352 nM |
| > 330 | CC(C)C[C@H](NC(=O)Nc1ccc(-c2noc(-c3cccs3)n2)cc1)C(=O)NCC#N | – |
| > 330 | N#CCNC(=O)[C@H](Cc1ccccc1)NC(=O)c1ccccc1 | – |

Further lines, the compound ahead of its results:

| SMILES | Ki (Cathepsin B [2]) [nM] | further results |
| --- | --- | --- |
| CC(C)C[C@H](NC(=O)c1ccc(-c2ccccc2)cc1)C(=O)NCC#N | – | Ki (Cathepsin B [1]): 1790 nM |
| CC(C)(C)OC(=O)N[C@@H](Cc1ccco1)C(=O)NCC#N | > 330 | – |
| CSCC[C@@H](C#N)NC(=O)[C@H](CC(C)C)NC(=O)OC(C)(C)C | > 330 | – |
| N#CCNC(=O)[C@H](Cc1ccccc1)NC(=O)OCc1ccccc1 | > 330 | – |
| CC(C)(C)OC(=O)N[C@@H](CCc1ccccc1)C(=O)NCC#N | > 330 | – |
| N#CCNC(=O)[C@H](Cc1ccccc1)NC(=O)c1ccc(-c2ccccc2)cc1 | 3920 | – |
| N#CCNC(=O)[C@@H](N)Cc1ccccc1 | > 330 | – |
| CC(C)C[C@H](NC(=O)c1ccc(-c2noc(-c3cccs3)n2)cc1)C(=O)NCC#N | > 330 | – |
| COc1ccc(C[C@H](NC(=O)OCc2ccccc2)C(=O)NCC#N)cc1 | > 330 | – |
| CC(C)C[C@H](NC(=O)OCc1ccccc1)C(=O)NCC#N | 32000 | – |
| CC(C)(C)OC(=O)N[C@@H](Cc1cccc(-c2ccccc2)c1)C(=O)NCC#N | 5350 | – |
| CC(C)(C)OC(=O)N[C@@H](Cc1ccccc1Br)C(=O)NCC#N | > 330 | – |
| CC(C)(C)OC(=O)N[C@@H](Cc1ccc(-c2ccccc2)cc1)C(=O)NCC#N | > 330 | – |
| CC(=O)N[C@@H](Cc1ccccc1)C(=O)NCC#N | > 330 | – |
| CCCC[C@H](NC(=O)OC(C)(C)C)C(=O)NCC#N | > 330 | – |
| CSCC[C@@H](C#N)NC(=O)[C@H](Cc1ccccc1)NC(=O)OC(C)(C)C | > 330 | – |
| N#CCNC(=O)[C@H](Cc1cccc(-c2ccccc2)c1)NC(=O)c1ccc(-c2ccccc2)cc1 | 1230 | Ki (Cathepsin K): 24.5 nM; Ki (Procathepsin L): 707 nM; Ki (Cathepsin S): 2660 nM |
| N#C[C@H](CCOCc1cn(CC(=O)O)nn1)NC(=O)[C@H](Cc1ccccc1)NC(=O)OCc1ccccc1 | 101000 | Ki (Cathepsin K): 580 nM; Ki (Procathepsin L): 2160 nM; Ki (Cathepsin S): 1000 nM |
| N#C[C@H](COCc1cn(CCC(=O)O)nn1)NC(=O)[C@H](Cc1ccccc1)NC(=O)OCc1ccccc1 | 33000 | Ki (Cathepsin K): 370 nM; Ki (Procathepsin L): 1270 nM; Ki (Cathepsin S): 2250 nM |
| CC(C)(C)OC(=O)N[C@@H](Cc1ccccc1)C(=O)N[C@H](C#N)CC#N | > 330 | – |

| SMILES | Ki (Cathepsin B [2]) [nM] | further results |
| --- | --- | --- |
| CC(C)(C)OC(=O)N[C@@H](Cc1ccccc1)C(=O)NCC#N | 37000 | – |
| CC(C)(C)OC(=O)N[C@@H](Cc1cccc(Br)c1)C(=O)NCC#N | 5170 | – |
| CSCC[C@@H](C#N)NC(=O)[C@H](CC1CCCCC1)NC(=O)OC(C)(C)C | > 330 | – |
| CC(C)(C)OC(=O)N[C@@H](Cc1c[nH]c2ccccc12)C(=O)NCC#N | > 330 | – |
| CN(CC#N)C(=O)[C@H](Cc1ccccc1)NC(=O)OC(C)(C)C | > 330 | – |
| N#CCNC(=O)[C@H](Cc1ccc2ccccc2c1)NC(=O)c1ccc(-c2ccccc2)cc1 | 126 | Ki (Cathepsin K): 4500 nM; Ki (Procathepsin L): 4300 nM; Ki (Cathepsin S): 180 nM |
| CC(C)(C)OC(=O)N[C@@H](Cc1ccc(F)cc1)C(=O)NCC#N | > 330 | – |
| CC(C)C[C@H](NC(=O)OC(C)(C)C)C(=O)NCC#N | 94000 | – |
| CC(C)(C)OC(=O)N[C@@H](CC1CCCCC1)C(=O)NCC#N | > 330 | – |
| C[C@@H](C#N)NC(=O)[C@H](Cc1ccccc1)NC(=O)OCc1ccccc1 | > 330 | – |
| N#C[C@H](Cc1cn(CCC(=O)O)nn1)NC(=O)[C@H](Cc1cccc(Br)c1)NC(=O)c1ccc(-c2ccccc2)cc1 | – | Ki (Cathepsin K): 226 nM; Ki (Procathepsin L): 6980 nM; Ki (Cathepsin S): 1800 nM |
| CSCC[C@H](NC(=O)OC(C)(C)C)C(=O)NCC#N | > 330 | – |
| N#C[C@H](COCc1cn(CC(=O)O)nn1)NC(=O)[C@H](Cc1ccccc1)NC(=O)OCc1ccccc1 | 24000 | Ki (Cathepsin K): 310 nM; Ki (Procathepsin L): 1050 nM; Ki (Cathepsin S): 4480 nM |
| CC(C)(C)OC(=O)N[C@@H](Cc1cccs1)C(=O)NCC#N | > 330 | – |
| CC(C)C[C@@H](C#N)NC(=O)[C@H](C)NC(=O)CNC(=O)OCc1ccccc1 | > 330 | – |
| N#CCNC(=O)C1(NC(=O)c2ccc(-c3noc(-c4cccs4)n3)cc2)CCCCC1 | > 330 | – |
| N#C[C@H](Cc1cn(CC(=O)O)nn1)NC(=O)[C@H](Cc1cccc(Br)c1)NC(=O)c1ccc(-c2ccccc2)cc1 | 11200 | Ki (Cathepsin B [3]): 707 nM; Ki (Cathepsin K): 535 nM; Ki (Cathepsin B [4]): 368 nM; Ki (Procathepsin L): 11700 nM; Ki (Cathepsin S): 4230 nM |
| CSCC[C@@H](C#N)NC(=O)[C@H](CC(C)C)NC(=O)c1ccc(-c2ccccc2)cc1 | 330 | – |
| CC(C)(C)OC(=O)N[C@H](C(=O)NCC#N)c1ccccc1 | > 330 | – |
| N#CCNC(=O)[C@H](CC1CCCCC1)NC(=O)c1ccc(-c2ccccc2)cc1 | > 330 | – |
